Measured values published in patent US20110076331A1, “Use of Deuterium Oxide as an Elastase Inhibitor” (priority 2008, published 2011).

Experiments:
[1] = tested on: subjects with acute sinusitis; assay: Aerosol inhalation in acute sinusitis (rhinoendoscopy); format: in vivo, human; details: D2O aerosol with 150 mM NaCl inhaled for 15 minutes
Method: Aerosols from D2O and H2O each mixed with 150 mM NaCl were prepared according to example 2. Subjects with acute sinusitis in the maxillary sinus area were divided into two groups. The experimental group inhaled the D2O aerosol for 15 minutes, the control group the H2O aerosol. During inhalation the subjects were relied on to inhale through the nose as much as possible. Every 3 hours after inhalation a rhinoendoscopic examination of the sinuses was conducted.

Syrian Gold hamsters [2] = assay: D2O instillation in an animal model of COPD (HNE-induced hemorrhage); format: in vivo, hamster
Method: To investigate the effect of D2O in a model for chronic obstructive pulmonary disease (COPD) male Syrian Gold hamsters (average weight 118 g±4 g) were divided into two groups (experimental group and control group) of 10 hamsters each. The animals of both groups were initially anesthetized intraperitoneally (ketamine 95 mg/kg and xylazine 17 mg/kg) and then intubated endotracheally with direct laryngoscopy. The experimental group received 250 μL of 0.9% NaCl solution based on D2O (98.5% deuterium enrichment) instilled, whereas 250 μL of a corresponding isotonic NaCl solution based on H2O was used in the control group. Each animal received after the end of this instillation a second instillation at a time interval of 30 minutes, which was identical for both groups: 100 μL of human neutrophil elastase (HNE, 500 μg/mL in sterile 0.9% NaCl solution). The animals were killed 4 hours (six animals per group) or 24 hours (four animals per group) after the last instillation (phenobarbital 70 mg/kg intraperitoneally).
For the animals killed 4 hours after instillation a BAL (bronchoalveolar lavage) was performed. 2.5 mL 0.9% NaCl solution was repeatedly instilled (total 3 times) for BAL and the hemoglobin concentration in the instillate then determined spectrophotometrically. The obtained value was used as a gauge for lung damage (hemorrhage) by human neutrophil elastase (HNE). For the control group an average hemoglobin value of 320±50 mOD (milli-optical density) was obtained. For the experimental group an average hemoglobin value of 170±20 mOD was measured.
For the animals killed 24 hours after instillation the lungs were removed, fixed in formalin and embedded in paraffin. Histologic longitudinal sections of the lungs in the direction of the lung hilus were prepared, stained and made visible with iron by means of an histochemical reaction (Berlin blue reaction), which serves as a gauge for the intensity of HNE-induced hemorrhage. The microscopic investigation of the sections gave the following result: […]

[3] = tested on: patients with type 1 sensitization and allergic rhinitis; assay: Nasal spray in allergic rhinitis; format: in vivo, human; details: isotonic saline using 70% D2O, 6 times a day, 14 days, vs H2O group
Method: A solution with D2O was prepared accordingly for application as nasal spray. […] The number of sneezing attacks was determined and the intensity of runny nose and nasal itching measured by visual analog scales as parameters. For this purpose a patient diary was used.
A solution with D2O was prepared according to example 21 for use as nasal spray. […] The number of sneezing attacks was determined as parameter and the intensity of runny nose and nasal itching were measured by visual analog scales. For this purpose a patient diary was used.

brown Norwegian rats = assay: Animal model of allergic bronchial asthma (ovalbumin); format: in vivo, rat; details: aerosol of isotonic D2O solution for 6 days before ovalbumin aerosol; after 24 hours
Method: The effect of D2O in allergic asthma was presented in an animal model of 10-week-old brown Norwegian rats (Roumestan et al., Resp Res 8:35-46, 2007). Sensitization of the animals occurred by repeated intraperitoneal injection of ovalbumin. The animals were then introduced to a climatized cage and constantly treated with an aerosol of isotonic H2O or D2O solution for 6 days. Asthma triggering by an ovalbumin-containing aerosol then occurred. The change in airway resistance was then determined as parameter by barometric plethysmography on the living animals after 24 hours. A significant intensification of airway resistance was found in the H2O-treated group.

Syrian Gold hamsters [4] = assay: D2O aerosols in an animal model of COPD (HNE-induced hemorrhage); format: in vivo, hamster
Method: The employed H2O was distilled and ion-exchanged. Both D2O and H2O were sterile. A Pari LC Plus universal atomizer (PARI GmbH, Starnberg, Germany) was used for aerosolization combined with a Pari universal compressor, which generated 200 mg/min polydispersed aerosol with an average particle size (median diameter) of 2.5 μm for pure H2O and pure D2O and 2.5-4.5 μm for H2O and D2O with additional non-pharmaceutical and/or pharmaceutical agents (operating pressure 2.0 bar, flow rate of the compressor air was 6.0 L/min). The particle size measurement occurred with dynamic light scattering in a flow cell. Aerosol generation occurred at a temperature of 37° C. by corresponding thermostating of the atomizer in a water bath thermostat.
Male Syrian Gold hamsters (average weight 105 g±8 g) were divided into two groups (experimental group and control group) of six hamsters each. The animals of both groups were anesthetized intraperitoneally (ketamine 95 mg/kg and xylazine 17 mg/kg) and then intubated endotracheally by direct laryngoscopy. Both groups received 100 μL of human neutrophil elastase (500 μg/mL in sterile 0.9% NaCl solution) instilled. […] For BAL 2.5 mL 0.9% NaCl solution was repeatedly instilled (total of three times) and the hemoglobin concentration then determined in the instillate speetrophotometrically. […] For the experimental group an average hemoglobin value of 120±20 mOD was measured. […]

[5] = tested on: patients with Wegener's disease; assay: D2O infusions in Wegener's granulomatosis (open study); format: in vivo, human; details: 500 mL isotonic saline prepared with 70% D2O infused once a day over a week in addition to individual therapy; vs conventionally treated patients
Method: Activation of neutrophil granulocytes is assigned importance in the pathogenesis of Wegener granulomatosis. The disease activity can be determined by determining proteinase 3-antineutrophil cytoplasmic antibodies (PR3-ANCA).
In patients with Wegener's disease in an open study the effect of additional infusion of 500 mL of an isotonic saline solution prepared with 70% D2O was investigated once a day over a week in addition to individual systemic therapy in five patients. Determination of PR3-ANCA in the serum before and after 1 week after the last D2O infusion served as control parameter. Five patients in whom individual therapy was used exclusively without additional infusions served as comparison. […] This permits the conclusion that systemic use of D2O for adjunctive therapy of systemic vasculites is suitable.

## [2H]O[2H] [D2O, deuterium oxide]
[1]; vs H2O aerosol control group
  mucosal swelling: significant reduction of mucosal swelling
[1]; vs control group
  outflow of secretion: improved outflow of secretion
Syrian Gold hamsters [2]; 250 μL 0.9% NaCl solution based on D2O instilled 30 minutes before HNE, animals killed 4 hours after instillation
  average hemoglobin value in BAL: 170±20 mOD
Syrian Gold hamsters [2]; animals killed 24 hours after instillation, vs H2O control group
  blue-stained cells in lung sections (Berlin blue reaction), intensity of HNE-induced hemorrhage: significantly smaller number of blue-stained cells
Syrian Gold hamsters [2]; instillation, from reduction in hemoglobin concentration in BAL vs H2O control group, 4 hours
  inhibition of the acute lung damage caused by elastase (hemorrhage): 47%
[3]
  sneezing attacks, intensity of runny nose and nasal itching (recorded parameters): significant reduction of the recorded parameters
Brown Norwegian rats
  change in airway resistance (barometric plethysmography): only a slight increase in airway resistance
Syrian Gold hamsters [4]; D2O aerosol 24 hours, from reduction in hemoglobin concentration vs H2O aerosol control group
  inhibition of acute lung damage caused by elastase (hemorrhage): 60%
Syrian Gold hamsters [4]; continuous D2O aerosol in respiration air for 24 hours after HNE instillation
  average hemoglobin value in BAL: 120±20 mOD
[5]
  PR3-ANCA values in the serum: stronger reduction of PR3-ANCA values
